Drawing on ChEMBL document CHEMBL1128595, “Synthesis and biological activity of 7-alkylidenecephems” (J Med Chem, 1995), this text covers Partition ratio for 2 compounds.

The data set concerns the target Beta-lactamase (Enterobacter cloacae) (UniProt P05364). Put plainly: The beta-lactamase inactivation partition ratio of the compound.

SMILES strings stand for the structures.

On to `CC(=O)OCC1=C(C(=O)[O-])N2C(=O)C(=C=CC(C)(C)C)[C@H]2S(=O)(=O)C1.[Na+]`, for which the Partition ratio is 12.
To `CC(=O)OCC1=C(C(=O)[O-])N2C(=O)/C(=C/c3ccccn3)[C@H]2S(=O)(=O)C1.[Na+]` belongs 20.
